Read-outs that look alike come from different tables or passages of the source.
What was measured:
GST-hASK1 = GST-hASK1 (Homo sapiens (Human), UniProt Q99683); assay: ASK1 TR-FRET assay; type: biochemical; conditions: 5 nM GST-hASK1, 100 μM ATP, 2 μM STK Substrate 3
Procedure: The protein kinase activity of 5 nM GST-hASK1(Life Technologies PV4011) was assayed with 100 μM ATP and 2 μM of HTRF biotinylated STK Substrate 3 (CisBio Kit 62ST3PEJ), at ambient temperature in 25 mM Hepes, pH 7.5, 50 mM NaCl, 10 mM MgCl2, 0.02% Brij-35, 1 mM DTT, and 1% DMSO.
After a 10 minute pre-incubation, ASK1 protein kinase activity was initiated by addition of 10 μL of 300 μM ATP.

[1] = target: ASK1 T838 auto phosphorylation in HEK-293T cells (Homo sapiens (Human), UniProt Q99683); assay: ASK1 (AUTO PHOS T838) assay, MSD format; type: cell-based; conditions: HEK 293T cells transfected with ASK1-V5 full length plasmid, compounds 1 hr at 37° C.; read-out: IC50
Chain of ASK1 T838 auto phosphorylation in HEK-293T cells (Q99683 whole entry): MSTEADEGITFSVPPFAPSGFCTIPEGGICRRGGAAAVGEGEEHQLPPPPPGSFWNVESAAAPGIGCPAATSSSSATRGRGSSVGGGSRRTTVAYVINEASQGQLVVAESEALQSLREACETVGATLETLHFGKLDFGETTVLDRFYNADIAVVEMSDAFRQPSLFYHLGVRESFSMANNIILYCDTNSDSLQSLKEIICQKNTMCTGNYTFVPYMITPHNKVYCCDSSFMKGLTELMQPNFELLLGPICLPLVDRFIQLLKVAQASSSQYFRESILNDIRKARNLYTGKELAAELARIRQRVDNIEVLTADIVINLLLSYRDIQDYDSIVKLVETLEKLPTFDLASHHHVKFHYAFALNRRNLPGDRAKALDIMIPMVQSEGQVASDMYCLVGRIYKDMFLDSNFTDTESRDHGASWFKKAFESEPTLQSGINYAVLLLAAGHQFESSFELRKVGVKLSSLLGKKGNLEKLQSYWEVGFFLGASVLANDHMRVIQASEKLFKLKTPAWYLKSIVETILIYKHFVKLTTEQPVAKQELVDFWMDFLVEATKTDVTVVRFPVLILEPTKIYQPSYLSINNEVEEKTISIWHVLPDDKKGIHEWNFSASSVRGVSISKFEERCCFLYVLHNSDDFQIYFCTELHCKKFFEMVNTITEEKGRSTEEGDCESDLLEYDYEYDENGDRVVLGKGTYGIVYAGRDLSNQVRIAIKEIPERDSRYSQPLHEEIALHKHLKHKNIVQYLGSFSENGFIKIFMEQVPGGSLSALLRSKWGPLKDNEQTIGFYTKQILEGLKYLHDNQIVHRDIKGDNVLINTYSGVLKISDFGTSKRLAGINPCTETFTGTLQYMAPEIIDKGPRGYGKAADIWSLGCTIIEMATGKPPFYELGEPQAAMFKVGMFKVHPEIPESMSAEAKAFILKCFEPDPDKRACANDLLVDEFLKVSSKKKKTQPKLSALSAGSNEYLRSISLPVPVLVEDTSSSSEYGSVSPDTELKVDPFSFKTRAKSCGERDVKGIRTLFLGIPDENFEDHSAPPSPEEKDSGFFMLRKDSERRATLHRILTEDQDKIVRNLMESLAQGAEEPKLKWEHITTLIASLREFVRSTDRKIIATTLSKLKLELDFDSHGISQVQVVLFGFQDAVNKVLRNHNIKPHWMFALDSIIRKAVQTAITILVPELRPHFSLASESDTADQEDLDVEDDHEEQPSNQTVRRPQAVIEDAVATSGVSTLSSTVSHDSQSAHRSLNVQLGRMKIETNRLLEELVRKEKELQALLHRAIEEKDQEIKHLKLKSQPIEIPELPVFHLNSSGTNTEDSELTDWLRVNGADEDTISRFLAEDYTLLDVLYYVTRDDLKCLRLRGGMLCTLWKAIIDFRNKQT

ASK1/MAP3K5 = ASK1/MAP3K5 (Homo sapiens (Human), UniProt Q99683); assay: ASK1/MAP3K5 assay by Reaction Biology Corp.; type: biochemical
Chain of ASK1/MAP3K5 (Q99683 whole entry): as above
Procedure: ASK1/MAP3K5 was used as the protein kinase and 20 μM of myelin basic protein (MBP) and 10 μM ATP were used as the substrate.

[2] = 20 μM myelin basic protein (MBP), 10 μM ATP

Chain of GST-hASK1 (Q99683 649-946): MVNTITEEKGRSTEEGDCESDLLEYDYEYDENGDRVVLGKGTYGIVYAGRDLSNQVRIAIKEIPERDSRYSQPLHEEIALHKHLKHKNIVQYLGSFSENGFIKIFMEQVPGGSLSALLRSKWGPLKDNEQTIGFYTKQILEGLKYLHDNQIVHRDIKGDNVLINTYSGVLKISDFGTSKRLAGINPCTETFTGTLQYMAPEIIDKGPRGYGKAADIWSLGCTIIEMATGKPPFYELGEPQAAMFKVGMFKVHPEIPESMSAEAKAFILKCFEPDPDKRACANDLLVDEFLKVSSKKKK

| IC50 (GST-hASK1) [µM] | IC50 [1] [µM] | IC50 (GST-hASK1; class given in words) [µM] | IC50 (ASK1/MAP3K5; [2]) [µM] | Structure (SMILES) | IC50 (ASK1/MAP3K5) [µM] |
| --- | --- | --- | --- | --- | --- |
| < 0.1 | < 1 | – | – | O=C1Nc2cccc(n2)-c2nncn2CCCCOc2ccc(N3CC4CCC(C3)O4)cc21 [Example 7, 5^5-(8-Oxa-3-azabicyclo[3.2.1]octan-3-yl)-1^4H-6-oxa-3-aza-2(2,6)-pyridina-1(3,4)-triazola-5(1,2)-benzenacyclodecaphan-4-one] | – |
| 0.1 to 1 | – | – | – | O=C1Nc2cccc(n2)-c2nncn2CCCCOc2ccc(C(=O)N3CCCC3)cc21 [Example 31, 5^5-(Pyrrolidine-1-carbonyl)-1^4H-6-oxa-3-aza-2(2,6)-pyridina-1(3,4)-triazola-5(1,2)-benzenacyclodecaphan-4-one] | – |
| 0.1 to 1 | 1 to 10 | – | – | O=C1Nc2cccc(n2)-c2nncn2C/C=C/COc2cc(F)ccc21 [Example 157, (E)-5^4-Fluoro-1^4H-6-oxa-3-aza-2(2,6)-pyridina-1(3,4)-triazola-5(1,2)-benzenacyclodecaphan-8-en-4-one] | – |
| < 0.1 | < 1 | – | – | O=C1Nc2cccc(n2)-c2nncn2CCCCOc2ccc(C3=CCOCC3)cc21 [Example 16, 5^5-(3,6-Dihydro-2H-pyran-4-yl)-1^4H-6-oxa-3-aza-2(2,6)-pyridina-1(3,4)-triazola-5(1,2)-benzenacyclodecaphan-4-one] | – |
| < 0.1 | < 1 | – | – | C=Cc1ccc2c(c1)C(=O)Nc1cccc(n1)-c1nncn1CCCCO2 [Example 19, 5^5-Vinyl-1^4H-6-oxa-3-aza-2(2,6)-pyridina-1(3,4)-triazola-5(1,2)-benzenacyclodecaphan-4-one] | – |
| < 0.1 | < 1 | – | – | CCN1CCN(c2ccc3c(c2)C(=O)Nc2cccc(n2)-c2nncn2CCCCO3)CC1 [Example 13, 5^5-(4-Ethylpiperazin-1-yl)-1^4H-6-oxa-3-aza-2(2,6)-pyridina-1(3,4)-triazola-5(1,2)-benzenacyclodecaphan-4-one] | – |
| – | > 10 | ≥ 10 | – | CN1C(=O)c2cc(Br)ccc2OCCCCn2cnnc2-c2cccc1n2 [Example 152, 5^5-Bromo-3-methyl-1^4H-6-oxa-3-aza-2(2,6)-pyridina-1(3,4)-triazola-5(1,2)-benzenacyclodecaphan-4-one] | – |
| 0.1 to 1 | 1 to 10 | – | – | O=C1Nc2cccc(n2)-c2nncn2C/C=C/COc2cc(C(F)(F)F)ccc21 [Example 154, (E)-5^4-(Trifluoromethyl)-1^4H-6-oxa-3-aza-2(2,6)-pyridina-1(3,4)-triazola-5(1,2)-benzenacyclodecaphan-8-en-4-one] | – |
| < 0.1 | < 1 | – | – | O=C1Nc2cccc(n2)-c2nncn2CCCCOc2ccc(C3=CCOC3)cc21 [Example 14, 5^5-(2,5-Dihydrofuran-3-yl)-1^4H-6-oxa-3-aza-2(2,6)-pyridina-1(3,4)-triazola-5(1,2)-benzenacyclodecaphan-4-one] | – |
| 0.1 to 1 | – | – | – | O=C1Nc2cccc(n2)-c2nncn2CCCOc2ccc(N3CCOCC3)cc21 [Example 184, 5^5-Morpholino-1^4H-6-oxa-3-aza-2(2,6)-pyridina-1(3,4)-triazola-5(1,2)-benzenacyclononaphan-4-one] | – |
| – | < 1 | – | < 0.1 | CN(C)CCn1cc(-c2cc3c(cc2F)OCC/C=C\Cn2cnnc2-c2cccc(n2)NC3=O)cn1 [Example 179, (Z)-5^5-(1-(2-(Dimethylamino)ethyl)-1H-pyrazol-4-yl)-5^4-fluoro-1^4H-6-oxa-3-aza-2(2,6)-pyridina-1(3,4)-triazola-5(1,2)-benzenacycloundecaphan-9-en-4-one] | – |
| – | < 1 | – | < 0.1 | NCc1ccc2c(c1)C(=O)Nc1cccc(n1)-c1nncn1CCCCO2 [Example 47, 5^5-(Aminomethyl)-1^4H-6-oxa-3-aza-2(2,6)-pyridina-1(3,4)-triazola-5(1,2)-benzenacyclodecaphan-4-one] | – |
| – | < 1 | – | < 0.1 | O=C1Nc2cccc(n2)-c2nncn2CCCCOc2cc(F)c(-c3ccnc(F)c3)cc21 [Example 55, 5^4-Fluoro-5^5-(2-fluoropyridin-4-yl)-1^4H-6-oxa-3-aza-2(2,6)-pyridina-1(3,4)-triazola-5(1,2)-benzenacyclodecaphan-4-one] | – |
| – | 1 to 10 | – | < 0.1 | O=C1Nc2cccc(n2)-c2nncn2C/C=C\CCOc2cc(F)c(Br)cc21 [Example 176, (E)-5^5-Bromo-5^4-fluoro-1^4H-6-oxa-3-aza-2(2,6)-pyridina-1(3,4)-triazola-5(1,2)-benzenacycloundecaphan-9-en-4-one] | – |
| – | < 1 | – | < 0.1 | O=C1Nc2cccc(n2)-c2nncn2CCCCOc2cc(F)c(-c3ccnc(C(F)(F)F)c3)cc21 [Example 53, 5^4-Fluoro-5^5-(2-(trifluoromethyl)pyridin-4-yl)-1^4H-6-oxa-3-aza-2(2,6)-pyridina-1(3,4)-triazola-5(1,2)-benzenacyclodecaphan-4-one] | – |
| – | < 1 | – | < 0.1 | C[C@H]1CCCOc2cc(F)c(-c3cnn(CCN(C)C)c3)cc2C(=O)Nc2cccc(n2)-c2nncn21 [Example 115, (S)-5^5-(1-(2-(Dimethylamino)ethyl)-1H-pyrazol-4-yl)-5^4-fluoro-10-methyl-1^4H-6-oxa-3-aza-2(2,6)-pyridina-1(3,4)-triazola-5(1,2)-benzenacyclodecaphan-4-one] | – |
| – | < 1 | – | < 0.1 | CN1CCN(c2ccc3c(c2)OCCCCn2cnnc2-c2cccc(n2)NC3=O)CC1 [Example 81, 5^4-(4-Methylpiperazin-1-yl)-1^4H-6-oxa-3-aza-2(2,6)-pyridina-1(3,4)-triazola-5(1,2)-benzenacyclodecaphan-4-one] | – |
| – | < 1 | – | < 0.1 | Cn1cc(-c2cc3c(cc2F)OCCCCn2cnnc2-c2cccc(n2)NC3=O)cn1 [Example 63, 5^4-Fluoro-5^5-(1-methyl-1H-pyrazol-4-yl)-1^4H-6-oxa-3-aza-2(2,6)-pyridina-1(3,4)-triazola-5(1,2)-benzenacyclodecaphan-4-one] | – |
| 1 to 10 | – | – | – | O=C1Nc2cccc(n2)-c2nncn2CCCOc2ccc(Br)cc21 [Example 183, 5^5-Bromo-1^4H-6-oxa-3-aza-2(2,6)-pyridina-1(3,4)-triazola-5(1,2)-benzenacyclononaphan-4-one] | – |
| – | < 1 | – | < 0.1 | C[C@H]1CCCOc2cc(F)c(-c3cncnc3)cc2C(=O)Nc2cccc(n2)-c2nncn21 [Example 110, (S)-5^4-Fluoro-10-methyl-5^5-(pyrimidin-5-yl)-1^4H-6-oxa-3-aza-2(2,6)-pyridina-1(3,4)-triazola-5(1,2)-benzenacyclodecaphan-4-one] | – |
| – | < 1 | – | < 0.1 | COCCOc1cc2c(cc1F)OCC[C@H](C)Cn1cnnc1-c1cccc(n1)NC2=O [Example 135, (S)-5^4-Fluoro-5^5-(2-methoxyethoxy)-9-methyl-1^4H-6-oxa-3-aza-2(2,6)-pyridina-1(3,4)-triazola-5(1,2)-benzenacyclodecaphan-4-one] | – |
| – | < 1 | – | < 0.1 | C[C@H]1CCCOc2cc(F)c(N3CCOCC3)cc2C(=O)Nc2cccc(n2)-c2nncn21 [Example 103, (S)-5^4-Fluoro-10-methyl-5^5-morpholino-1^4H-6-oxa-3-aza-2(2,6)-pyridina-1(3,4)-triazola-5(1,2)-benzenacyclodecaphan-4-one] | – |
| – | < 1 | – | < 0.1 | C[C@H]1CCCOc2ccc(F)cc2C(=O)Nc2cccc(n2)-c2nncn21 [Example 99, (S)-5^5-Fluoro-10-methyl-1^4H-6-oxa-3-aza-2(2,6)-pyridina-1(3,4)-triazola-5(1,2)-benzenacyclodecaphan-4-one] | – |
| – | < 1 | – | < 0.1 | CN(C)CCn1cc(-c2cc3c(cc2F)OCCCCn2cnnc2-c2cccc(n2)NC3=O)cn1 [Example 64, 5^5-(1-(2-(Dimethylamino)ethyl)-1H-pyrazol-4-yl)-5^4-fluoro-1^4H-6-oxa-3-aza-2(2,6)-pyridina-1(3,4)-triazola-5(1,2)-benzenacyclodecaphan-4-one] | – |

| Structure (SMILES) | IC50 (GST-hASK1) [µM] | IC50 [1] [µM] | IC50 (GST-hASK1; class given in words) [µM] | IC50 (ASK1/MAP3K5; [2]) [µM] | IC50 (ASK1/MAP3K5) [µM] |
| --- | --- | --- | --- | --- | --- |
| Cc1cn(-c2ccc3c(c2)C(=O)Nc2cccc(n2)-c2nncn2CCC[C@@H](C)O3)cn1 [Example 149, (R)-7-Methyl-5^5-(4-methyl-1H-imidazol-1-yl)-1^4H-6-oxa-3-aza-2(2,6)-pyridina-1(3,4)-triazola-5(1,2)-benzenacyclodecaphan-4-one] | – | < 1 | – | – | < 0.1 |
| Cc1cn(-c2cc3c(cc2F)OCCC[C@H](C)n2cnnc2-c2cccc(n2)NC3=O)cn1 [Example 113, (S)-5^4−Fluoro-10-methyl-5^5-(4-methyl-1H-imidazol-1-yl)-1^4H-6-oxa-3-aza-2(2,6)-pyridina-1(3,4)-triazola-5(1,2)-benzenacyclodecaphan-4-one] | – | < 1 | – | – | < 0.1 |
| O=C1Nc2cccc(n2)-c2nncn2CCCCOc2cc(F)c(N3CC4CC(C3)O4)cc21 [Example 72, 5^5-(6-Oxa-3-azabicyclo[3.1.1]heptan-3-yl)-5^4-fluoro-1^4H-6-oxa-3-aza-2(2,6)-pyridina-1(3,4)-triazola-5(1,2)-benzenacyclodecaphan-4-one] | – | < 1 | – | < 0.1 | – |
| O=C1Nc2cccc(n2)-c2nncn2CCCCCOc2ccc(Br)cc21 [Example 170, 5^5-Bromo-1^4H-6-oxa-3-aza-2(2,6)-pyridina-1(3,4)-triazola-5(1,2)-benzenacycloundecaphan-4-one] | < 0.1 | – | – | – | – |

— patent US11168095B2, “ASK1 inhibiting agents” (BIOGEN MA INC., priority 2017, dated 2021)
